Measured values from patent publication US20240050428A1 (Cullgen (Shanghai), Inc., priority 2020, published 2024).
Read-outs that look alike come from different tables or passages of the source.

Assays:
[1] = system: MV4;11 cells; experiment: Cell viability assay (CellTiter-Glo) in MV4;11 cells, alone or with gilteritinib; format: cell-based; details: Homo sapiens, MV4;11 cells, three days, CellTiter-Glo, read-out: MV4
[2] = system: MOLM-13 cells; experiment: Cell viability assay (CellTiter-Glo) in MOLM-13 cells, alone or with gilteritinib; format: cell-based; details: Homo sapiens, MOLM-13 cells, three days, CellTiter-Glo
[3] = MV4-11, 72 h, compound alone (without gilteritinib), 11 IC50
[4] = MV4-11, 72 h, with gilteritinib 10 nM, 11 IC50 gilteritinib
[5] = MOLM-13, 72 h, compound alone (without gilteritinib), read-out: MOLM-13 IC50
[6] = MOLM-13, 72 h, with gilteritinib 20 nM, read-out: MOLM-13 IC50 gilteritinib
[7] = 72 h, compound alone (without gilteritinib), 11 IC50
[8] = 72 h, with gilteritinib 10 nM, 11 IC50 gilteritinib
[9] = 72 h, compound alone (without gilteritinib), read-out: MOLM-13 IC50
[10] = 72 h, with gilteritinib 20 nM, read-out: MOLM-13 IC50 gilteritinib

Row | SMILES | IC50 [1, 3] | IC50 [1, 4] | IC50 [2, 5] | IC50 [2, 6] | IC50 [1, 7] | IC50 [1, 8] | IC50 [2, 9] | IC50 [2, 10]
1 | O=C1CCC(N2C(=O)c3ccc(NCCCCCC(=O)N4CCC(F)(c5ccccc5)CC4)cc3C2=O)C(=O)N1 (centres unmarked) [GS-348, 2-(2,6-Dioxopiperidin-3-yl)-5-((6-(4-fluoro-4-phenylpiperidin-1-yl)-6-oxohexyl)amino)isoindoline-1,3-dione] | 10 to 100 nM | < 10 nM | 10 to 100 nM | < 10 nM | – | – | – | –
2 | O=C1CCC(N2C(=O)c3ccc(CNC(=O)NC4CCCC(n5cc(-c6cnc7ccccc7n6)cn5)C4)cc3C2=O)C(=O)N1 (centres unmarked) [GS-349, 1-((2-(2,6-Dioxopiperidin-3-yl)-1,3-dioxoisoindolin-5-yl)methyl)-3-(3-(4-(quinoxalin-2-yl)-1H-pyrazol-1-yl)cyclohexyl)urea] | 10 to 100 nM | 10 to 100 nM | 100 to 1000 nM | 10 to 100 nM | – | – | – | –
3 | O=C1CCC(N2C(=O)c3ccc(NCCCN4CCCC(N5CCN(c6ccccn6)CC5)C4)cc3C2=O)C(=O)N1 (centres unmarked) [GS-350, 2-(2,6-Dioxopiperidin-3-yl)-5-((3-(3-(4-(pyridin-2-yl)piperazin-1-yl)piperidin-1-yl)propyl)amino)isoindoline-1,3-dione] | > 1000 nM | > 1000 nM | > 1000 nM | < 10 nM | – | – | – | –
4 | O=C1CCC(N2C(=O)c3ccc(NCCNc4cccc(N5CCC(n6cc(-c7cnc8ccccc8n7)cn6)CC5)c4)cc3C2=O)C(=O)N1 (centres unmarked) [GS-351, 2-(2,6-Dioxopiperidin-3-yl)-5-((2-((3-(4-(4-(quinoxalin-2-yl)-1H-pyrazol-1-yl)piperidin-1-yl)phenyl)amino)ethyl)amino)isoindoline-1,3-dione] | – | – | – | – | 10 to 100 nM | 10 to 100 nM | 10 to 100 nM | < 10 nM
5 | O=C1CCC(N2C(=O)c3ccc(CCCCCCCn4cc(-c5cnc6ccccc6n5)cn4)cc3C2=O)C(=O)N1 (centres unmarked) [GS-352, 2-(2,6-Dioxopiperidin-3-yl)-5-(7-(4-(quinoxalin-2-yl)-1H-pyrazol-1-yl)heptyl)isoindoline-1,3-dione] | 100 to 1000 nM | 100 to 1000 nM | > 1000 nM | 100 to 1000 nM | – | – | – | –
6 | O=C1CCC(N2C(=O)c3ccc(NCCNc4cccc(-n5cc(-c6cnc7ccccc7n6)cn5)c4)cc3C2=O)C(=O)N1 (centres unmarked) [GS-353, 2-(2,6-Dioxopiperidin-3-yl)-5-((2-((3-(4-(quinoxalin-2-yl)-1H-pyrazol-1-yl)phenyl)amino)ethyl)amino)isoindoline-1,3-dione] | – | – | – | – | 100 to 1000 nM | 10 to 100 nM | > 1000 nM | 10 to 100 nM
7 | O=C1CCC(N2C(=O)c3ccc(OCCCCCCn4cc(-c5cnc6ccccc6n5)cn4)cc3C2=O)C(=O)N1 (centres unmarked) [GS-354, 2-(2,6-Dioxopiperidin-3-yl)-5-((6-(4-(quinoxalin-2-yl)-1H-pyrazol-1-yl)hexyl)oxy)isoindoline-1,3-dione] | > 1000 nM | > 1000 nM | > 1000 nM | > 1000 nM | – | – | – | –
8 | O=C1CCC(N2C(=O)c3ccc(NCCCn4cc(-c5cnc6ccccc6n5)cn4)cc3C2=O)C(=O)N1 (centres unmarked) [GS-355, 2-(2,6-Dioxopiperidin-3-yl)-5-((3-(4-(quinoxalin-2-yl)-1H-pyrazol-1-yl)propyl)amino)isoindoline-1,3-dione] | > 1000 nM | 10 to 100 nM | > 1000 nM | 100 to 1000 nM | – | – | – | –
9 | O=C1CCC(N2C(=O)c3ccc(NCCCCCn4cc(-c5cnc6ccccc6n5)cn4)cc3C2=O)C(=O)N1 (centres unmarked) [GS-356, 2-(2,6-Dioxopiperidin-3-yl)-5-((5-(4-(quinoxalin-2-yl)-1H-pyrazol-1-yl)pentyl)amino)isoindoline-1,3-dione] | 100 to 1000 nM | 100 to 1000 nM | > 1000 nM | 100 to 1000 nM | – | – | – | –
10 | O=C1CCC(N2C(=O)c3ccc(NCCNc4cccc(-n5cc(-c6cnc7cccc(Br)c7n6)cn5)c4)cc3C2=O)C(=O)N1 (centres unmarked) [GS-357, 5-((2-((3-(4-(8-Bromoquinoxalin-2-yl)-1H-pyrazol-1-yl)phenyl)amino)ethyl)amino)-2-(2,6-dioxopiperidin-3-yl)isoindoline-1,3-dione] | – | – | – | – | 10 to 100 nM | 10 to 100 nM | 10 to 100 nM | 10 to 100 nM
11 | O=C1CCC(N2C(=O)c3ccc(C4CCN(CCCn5cc(-c6cnc7ccccc7n6)cn5)CC4)cc3C2=O)C(=O)N1 (centres unmarked) [GS-358, 2-(2,6-Dioxopiperidin-3-yl)-5-(1-(3-(4-(quinoxalin-2-yl)-1H-pyrazol-1-yl)propyl)piperidin-4-yl)isoindoline-1,3-dione] | – | – | – | – | > 1000 nM | > 1000 nM | > 1000 nM | > 1000 nM
12 | O=C(CN1CCCC(N2CCN(c3ccccn3)CC2)C1)NCc1ccc2c(c1)C(=O)N(C1CCC(=O)NC1=O)C2=O (centres unmarked) [GS-359, N-((2-(2,6-Dioxopiperidin-3-yl)-1,3-dioxoisoindolin-5-yl)methyl)-2-(3-(4-(pyridin-2-yl)piperazin-1-yl)piperidin-1-yl)acetamide] | > 1000 nM | > 1000 nM | > 1000 nM | > 1000 nM | – | – | – | –
13 | O=C1CCC(N2C(=O)c3ccc(NCCCCn4cc(-c5cnc6ccccc6n5)cn4)cc3C2=O)C(=O)N1 (centres unmarked) [GS-360, 2-(2,6-Dioxopiperidin-3-yl)-5-((4-(4-(quinoxalin-2-yl)-1H-pyrazol-1-yl)butyl)amino)isoindoline-1,3-dione] | 100 to 1000 nM | 100 to 1000 nM | > 1000 nM | 10 to 100 nM | – | – | – | –
14 | O=C1CCC(N2Cc3cc(NCCCCCCn4cc(-c5cnc6ccccc6n5)cn4)ccc3C2=O)C(=O)N1 (centres unmarked) [GS-361, 3-(1-Oxo-5-((6-(4-(quinoxalin-2-yl)-1H-pyrazol-1-yl)hexyl)amino)isoindolin-2-yl)piperidine-2,6-dione] | 100 to 1000 nM | 10 to 100 nM | > 1000 nM | 10 to 100 nM | – | – | – | –
15 | O=C1CCC(N2C(=O)c3ccc(NCCNc4cccc(N5CCC(n6cc(-c7cnc8cccc(Br)c8n7)cn6)CC5)c4)cc3C2=O)C(=O)N1 (centres unmarked) [GS-362, 5-((2-((3-(4-(4-(8-Bromoquinoxalin-2-yl)-1H-pyrazol-1-yl)piperidin-1-yl)phenyl)amino)ethyl)amino)-2-(2,6-dioxopiperidin-3-yl)isoindoline-1,3-dione] | – | – | – | – | < 10 nM | < 10 nM | < 10 nM | < 10 nM
16 | O=C1CCC(N2C(=O)c3ccc(N4CCC(CCCn5cc(-c6cnc7ccccc7n6)cn5)CC4)cc3C2=O)C(=O)N1 (centres unmarked) [GS-363, 2-(2,6-Dioxopiperidin-3-yl)-5-(4-(3-(4-(quinoxalin-2-yl)-1H-pyrazol-1-yl)propyl)piperidin-1-yl)isoindoline-1,3-dione] | 100 to 1000 nM | 100 to 1000 nM | > 1000 nM | > 1000 nM | – | – | – | –
17 | O=C1CCC(N2C(=O)c3ccc(C4CN(CCCCn5cc(-c6cnc7ccccc7n6)cn5)C4)cc3C2=O)C(=O)N1 (centres unmarked) [GS-364, 2-(2,6-Dioxopiperidin-3-yl)-5-(1-(4-(4-(quinoxalin-2-yl)-1H-pyrazol-1-yl)butyl)azetidin-3-yl)isoindoline-1,3-dione] | > 1000 nM | > 1000 nM | > 1000 nM | > 1000 nM | – | – | – | –
18 | O=C1CCC(N2C(=O)c3ccc(NCCCc4cccc(-n5cc(-c6cnc7ccccc7n6)cn5)c4)cc3C2=O)C(=O)N1 (centres unmarked) [GS-365, 2-(2,6-Ddioxopiperidin-3-yl)-5-((3-(3-(4-(quinoxalin-2-yl)-1H-pyrazol-1-yl)phenyl)propyl)amino)isoindoline-1,3-dione] | > 1000 nM | > 1000 nM | > 1000 nM | 100 to 1000 nM | – | – | – | –
19 | O=C1CCC(N2C(=O)c3ccc(NCCNc4cccc(N5CCC(c6ccccc6)CC5)c4)cc3C2=O)C(=O)N1 (centres unmarked) [GS-366, 2-(2,6-Dioxopiperidin-3-yl)-5-((2-((3-(4-phenylpiperidin-1-yl)phenyl)amino)ethyl)amino)isoindoline-1,3-dione] | – | – | – | – | 10 to 100 nM | < 10 nM | 10 to 100 nM | < 10 nM
20 | O=C1CCC(N2C(=O)c3ccc(N4CC(CCCCn5cc(-c6cnc7ccccc7n6)cn5)C4)cc3C2=O)C(=O)N1 (centres unmarked) [GS-367, 2-(2,6-Dioxopiperidin-3-yl)-5-(3-(4-(4-(quinoxalin-2-yl)-1H-pyrazol-1-yl)butyl)azetidin-1-yl)isoindoline-1,3-dione] | > 1000 nM | > 1000 nM | > 1000 nM | > 1000 nM | – | – | – | –
21 | O=C1CCC(N2C(=O)c3ccc(NCCCc4cccc(N5CCC(n6cc(-c7cnc8ccccc8n7)cn6)CC5)c4)cc3C2=O)C(=O)N1 (centres unmarked) [GS-368, 2-(2,6-Dioxopiperidin-3-yl)-5-((3-(3-(4-(4-(quinoxalin-2-yl)-1H-pyrazol-1-yl)piperidin-1-yl)phenyl)propyl)amino)isoindoline-1,3-dione] | < 10 nM | < 10 nM | < 10 nM | < 10 nM | – | – | – | –
22 | O=C1CCC(N2C(=O)c3ccc(C#CCCCCn4cc(-c5cnc6ccccc6n5)cn4)cc3C2=O)C(=O)N1 (centres unmarked) [GS-369, 2-(2,6-Dioxopiperidin-3-yl)-5-(6-(4-(quinoxalin-2-yl)-1H-pyrazol-1-yl)hex-1-yn-1-yl)isoindoline-1,3-dione] | > 1000 nM | > 1000 nM | > 1000 nM | > 1000 nM | – | – | – | –
23 | O=C1CCC(N2C(=O)c3ccc(NCCNc4cccc(N5CCC(c6nccs6)CC5)c4)cc3C2=O)C(=O)N1 (centres unmarked) [GS-370, 2-(2,6-Dioxopiperidin-3-yl)-5-((2-((3-(4-(thiazol-2-yl)piperidin-1-yl)phenyl)amino)ethyl)amino)isoindoline-1,3-dione] | – | – | – | – | < 10 nM | < 10 nM | < 10 nM | < 10 nM
